Legend:
[1] = in vivo; cited from earlier work
[2] = injectable esters; cited from earlier work
[3] = without some form of permeation enhancement; cited from earlier work
[4] = solubility in receiver medium; format: physicochemical; details: 0.02% sodium azide solution, skin surface temperature 32°±1° C.

## C[C@]12CCC(=O)C=C1CC[C@@H]1[C@@H]2CC[C@@]2(C)[C@H]1CC[C@]2(C)O [methyl testosterone]
[1]
  hepatotoxicity: known to be hepatotoxic

## CCCCCCC(=O)O[C@H]1CC[C@H]2[C@@H]3CCC4=CC(=O)CC[C@]4(C)[C@H]3CC[C@]12C [testosterone enanthate]
[2]
  fluctuations in hormone levels: marked supraphysiological fluctuations in hormone levels

## CCC(=O)O[C@H]1CC[C@H]2[C@@H]3CCC4=CC(=O)CC[C@]4(C)[C@H]3CC[C@]12C [testosterone propionate]
[2]
  fluctuations in hormone levels: marked supraphysiological fluctuations in hormone levels

## C[C@]12CC[C@H]3[C@@H](CCC4=CC(=O)CC[C@@]43C)[C@@H]1CC[C@@H]2O [testosterone]
[3]
  passage through non-scrotal skin: does not pass through non-scrotal skin at practical fluxes
[4]
  solubility in receiver medium: adequate to ensure sink conditions throughout the experiment

Source: patent US5460820A, “Methods for providing testosterone and optionally estrogen replacement therapy to women” (TheraTech, Inc., priority 1993, dated 1995)
